From ChEMBL document CHEMBL4387785, “Discovery of a C-8 hydroxychromene as a potent degrader of estrogen receptor alpha with improved rat oral exposure over GDC-0927” (Bioorg Med Chem Lett, 2019)

Assays:
in vitro [1] = settings: human, liver microsomes
in vitro [2] = settings: rat, liver microsomes
in vitro [3] = settings: human, hepatocytes
in vitro [4] = settings: rat, hepatocytes
[5] = Oral bioavailability in rat at 1 mg/kg administered as suspension; type: ADME, organism-based; settings: in vivo
[6] = Dose normalized AUC in rat at 1 mg/kg, po administered as suspension; type: ADME, organism-based; settings: in vivo
in vivo [7] = settings: rat, iv, 1 mg/kg
in vitro [8] = settings: dog, MDCK
[9] = Dose normalized AUC in rat at 5 mg/kg, po administered as suspension; type: ADME, organism-based; settings: in vivo
in vivo [10] = settings: rat, po, 5 mg/kg

CLhep predicted (in vitro [1]) [mL/min/kg]	CLhep predicted (in vitro [2]) [mL/min/kg]	bioavailability [5] [%]	AUC/dose [6] [µM·h]	clearance (in vivo [7]) [mL/min/kg]	Papp A→B (in vitro [8]) [×10⁻⁶ cm/s]	AUC/dose [9] [µM·h]	bioavailability (in vivo [10]) [%]	Structure (SMILES)	CLhep predicted (in vitro [3]) [mL/min/kg]	CLhep predicted (in vitro [4]) [mL/min/kg]
10	28							CC1=C(c2ccc(F)cc2)[C@H](c2ccc(OCCN3CC(CF)C3)cc2)Oc2ccc(O)cc21	14	31
9	43	30	0.43	18	2.4			CC1=C(c2cccc(O)c2)[C@H](c2ccc(OCCN3CC(CF)C3)cc2)Oc2c(O)cccc21	13	44
12	45 to 46			100	4.6	0.04	10	CC1=C(c2cccc(O)c2)[C@H](c2ccc(OCCN3CC(CF)C3)cc2)Oc2ccc(O)cc21	16	45 to 46
9	27							CC1=C(c2ccc(F)cc2)[C@H](c2ccc(OCCN3CC(CF)C3)cc2)Oc2c(O)cccc21		

More lines, now with the values behind:

Structure (SMILES)	CLhep predicted (in vitro [1]) [mL/min/kg]	CLhep predicted (in vitro [2]) [mL/min/kg]	bioavailability [5] [%]	AUC/dose [6] [µM·h]	clearance (in vivo [7]) [mL/min/kg]	Papp A→B (in vitro [8]) [×10⁻⁶ cm/s]	AUC/dose [9] [µM·h]	bioavailability (in vivo [10]) [%]	CLhep predicted (in vitro [3]) [mL/min/kg]	CLhep predicted (in vitro [4]) [mL/min/kg]
CC1=C(c2ccc(F)cc2)[C@H](c2ccc(OCCN3CC(CF)C3)cc2)Oc2cc(F)c(O)cc21	8	20							15	28
Oc1cccc(C2=Cc3cc(O)ccc3O[C@H]2c2ccc(OCCN3CC(CF)C3)cc2)c1	12	36							17	41
CCC1=C(c2cccc(O)c2)[C@H](c2ccc(OCCN3CC(CF)C3)cc2)Oc2ccc(O)cc21	12	39							15	40
